For one data set, the target named is T1, BRPF1 (Homo sapiens, UniProt P55201).
T1 construct: purchased Eurofins DiscoverX (BROMOscan)
Briefly: BromoScan profiling (DiscoverX). The following applies: read-out: Percent Control BRPF1. The data set is classed as binding.

The target in a further data set is T2, BRPF3 (Homo sapiens, UniProt Q9ULD4).
T2 construct: purchased Eurofins DiscoverX (BROMOscan)
The data set is described as follows: BromoScan profiling (DiscoverX). The data set is classed as binding. As to conditions: read-out: Percent Control BRPF3.

Another data set deals with T3, ATAD2B (Homo sapiens, UniProt Q9ULI0).
T3 construct: purchased Eurofins DiscoverX (BROMOscan)
The data set is described as follows: BromoScan profiling (DiscoverX). The data set is classed as binding. As to conditions: read-out: Percent Control ATAD2B.

The next data set has as its target T4, BRD1 (Homo sapiens, UniProt O95696).
T4 construct: purchased Eurofins DiscoverX (BROMOscan)
The data set is described as follows: BromoScan profiling (DiscoverX). The data set is classed as binding. The following applies: read-out: Percent Control BRD1.

A further data set addresses T5, ATAD2A (Homo sapiens, UniProt Q6PL18).
T5 construct: purchased Eurofins DiscoverX (BROMOscan)
The data set is described as follows: BromoScan profiling (DiscoverX). Format: binding. The following applies: read-out: Percent Control ATAD2A.

Another data set has as its target T6, BRD9 (Homo sapiens, UniProt Q9H8M2).
T6 construct: purchased Eurofins DiscoverX (BROMOscan)
The data set is described as follows: BromoScan profiling (DiscoverX). The data set is classed as binding. As to conditions: read-out: Percent Control BRD9.

In the next data set the target is T7, BRDT(2) (Homo sapiens, UniProt Q58F21).
T7 construct: BRDT(2); purchased Eurofins DiscoverX (BROMOscan)
The data set is described as follows: BromoScan profiling (DiscoverX). Format: binding. As to conditions: read-out: Percent Control BRDT(2).

In another data set the target is T8, SMARCA2 (Homo sapiens, UniProt P51531).
T8 construct: purchased Eurofins DiscoverX (BROMOscan)
Briefly: BromoScan profiling (DiscoverX). The data set is classed as binding. The following applies: read-out: Percent Control SMARCA2.

Another data set deals with T9, TAF1(2) (Homo sapiens, UniProt P21675).
T9 construct: TAF1(2); purchased Eurofins DiscoverX (BROMOscan)
The data set is described as follows: BromoScan profiling (DiscoverX). Format: binding. The following applies: read-out: Percent Control TAF1(2).

The target in the next data set is T10, BRD7 (Homo sapiens, UniProt Q9NPI1).
T10 construct: purchased Eurofins DiscoverX (BROMOscan)
Briefly: BromoScan profiling (DiscoverX). The data set is classed as binding. As to conditions: read-out: Percent Control BRD7.

A further data set has as its target T11, BRD3(2) (Homo sapiens, UniProt Q15059).
T11 construct: BRD3(2); purchased Eurofins DiscoverX (BROMOscan)
The data set is described as follows: BromoScan profiling (DiscoverX). As to conditions: read-out: Percent Control BRD3(2). The data set is classed as binding.

The test system of another data set is TRIM33(PHD,Bromo.). The data set is described as follows: BromoScan profiling (DiscoverX). The data set is classed as binding, human. The following applies: 1 µM.
A short description of data set [1]: Plasma pharmacokinetics after i.p. dosing. As to conditions: 16 and 24 hrs, below lower limit of quantitation. Format: in vivo, female CD-1 nude mice. As for the experimental part: All animal studies were approved by the St. Jude Children’s Research Hospital Animal Care and Use Committee and performed in accordance with best practices outlined by the NIH Office of Laboratory Animal Welfare. […] Three survival blood samples were obtained from each mouse via retro-orbital plexus using 70 μL glass microhematocrit capillary tubes (Fisher), and a fourth final sample by cardiac puncture immediately following the third survival sample, all using K-EDTA as anticoagulant. Samples were obtained at various times up to 24 h post-dose, immediately processed to plasma, and stored at −80 °C until analysis. […]
Brain samples were homogenized using a FastPrep-24 system (MP Biomedicals, Santa Ana, CA), and stored at -80 °C until analysis by qualified liquid chromatography–tandem mass spectrometry (LC-MS/MS) assay. […] Plasma and brain homogenate samples were precipitated, and extracted supernatant was analyzed on an AB Sciex ExionLC high performance liquid chromatography system via an AB Sciex ExionLC autosampler. For quantitation, a linear model (1/X^2 weighting) fit the plasma and brian homogenate calibrators across the 1 to 500 ng/mL range, with a correlation coefficient (R) of ≥0.9967. The lower limit of quantitation (LLOQ), defined as a peak area signal-to-noise ratio of 5 or greater verses a matrix blank with internal standard, was 1 ng/mL in plasma and 6 ng/mL in brain. […]

The next data set addresses T12, BRD4-BD1 (BRD4-1) (Homo sapiens, UniProt O60885).
T12 construct: BRD4-BD1 (residues 44-168); 6xHis (cleaved yes); host or cells: E. coli BL21 (DE3) RIL
The data set is described as follows: Isothermal titration calorimetry (ITC). Format: binding. The following applies: single ITC experiment, data fit ± SEM. As for the experimental part:
At OD600 of 0.6, the culture was cooled down to 18 °C and induced with 0.1 mM IPTG. After 18 h growth, the culture was harvested by centrifugation at 6000 × g for 25 min and stored at -80 °C. Harvested cell pellets were re-suspended in 50 mM Na/K phosphate buffer (pH 7.4) containing 100 mM NaCl, 40 mM imidazole, 0.01% w/v lysozyme and 0.01% v/v Triton X-100 at 4 °C for 1 h, subjected to sonication and the lysate was clarified by centrifugation (30,000 × g for 45 min at 4 °C). Proteins were purified by FPLC at 4 °C using columns and chromatography materials from GE Healthcare. […] Proteins were purified to homogeneity by size exclusion chromatography using Superdex 75 equilibrated with elution buffer (50 mM HEPES pH 7.5, 100 mM NaCl, 2 mM DTT). All BRDs eluted as monomeric protein and were of crystallization grade quality (>95% purity as judged by SDS-PAGE). Pool fractions were combined, concentrated to 10–12 mg/ml, and aliquots were flash-frozen in liquid N2 and stored at −80 °C.
All experiments were conducted using an PEAQ-ITC calorimeter (Malvern Scientific). BRDs were buffer exchanged using PD10 columns (GE life sciences) into 50 mM HEPES pH7.5 and 100 mM NaCl (ITC buffer) before the experiment and concentrated to ∼10 mg/mL. Experiments were carried out in ITC buffer while stirring at 750 rpm through reverse titration. The microsyringe (40 μL load volume) was loaded with the protein sample (250–600 μM protein in ITC buffer) and inserted into the calorimetric cell (0.2 mL cell volume) consisting of compound (20–60 μM in ITC buffer). All titrations were conducted using an initial control injection of 0.2 μL followed by 13 identical injections (~3 μL per injection) with a duration of 2 s (per injection) and a spacing of 150 s between injections. The ratio of protein/compound was optimized to ensure complete saturation of the titrant before the final injection to ensure proper baseline determination. Data were corrected for dilution and analyzed using the MicroCal Origin software to determine the enthalpies of binding (ΔH) and binding constants as described. Thermodynamic parameters were calculated using the basic equation of thermodynamics (ΔG = ΔH − TΔS = −RTlnKB) where ΔG, ΔH and ΔS are the changes in free energy, enthalpy and entropy of binding, respectively. A single binding site model was used for all ligand-protein interactions.
(In general: ITC needs no label: the signal is the heat of the interaction.)

The structures appear in SMILES notation.

T4 sequence (O95696 whole entry): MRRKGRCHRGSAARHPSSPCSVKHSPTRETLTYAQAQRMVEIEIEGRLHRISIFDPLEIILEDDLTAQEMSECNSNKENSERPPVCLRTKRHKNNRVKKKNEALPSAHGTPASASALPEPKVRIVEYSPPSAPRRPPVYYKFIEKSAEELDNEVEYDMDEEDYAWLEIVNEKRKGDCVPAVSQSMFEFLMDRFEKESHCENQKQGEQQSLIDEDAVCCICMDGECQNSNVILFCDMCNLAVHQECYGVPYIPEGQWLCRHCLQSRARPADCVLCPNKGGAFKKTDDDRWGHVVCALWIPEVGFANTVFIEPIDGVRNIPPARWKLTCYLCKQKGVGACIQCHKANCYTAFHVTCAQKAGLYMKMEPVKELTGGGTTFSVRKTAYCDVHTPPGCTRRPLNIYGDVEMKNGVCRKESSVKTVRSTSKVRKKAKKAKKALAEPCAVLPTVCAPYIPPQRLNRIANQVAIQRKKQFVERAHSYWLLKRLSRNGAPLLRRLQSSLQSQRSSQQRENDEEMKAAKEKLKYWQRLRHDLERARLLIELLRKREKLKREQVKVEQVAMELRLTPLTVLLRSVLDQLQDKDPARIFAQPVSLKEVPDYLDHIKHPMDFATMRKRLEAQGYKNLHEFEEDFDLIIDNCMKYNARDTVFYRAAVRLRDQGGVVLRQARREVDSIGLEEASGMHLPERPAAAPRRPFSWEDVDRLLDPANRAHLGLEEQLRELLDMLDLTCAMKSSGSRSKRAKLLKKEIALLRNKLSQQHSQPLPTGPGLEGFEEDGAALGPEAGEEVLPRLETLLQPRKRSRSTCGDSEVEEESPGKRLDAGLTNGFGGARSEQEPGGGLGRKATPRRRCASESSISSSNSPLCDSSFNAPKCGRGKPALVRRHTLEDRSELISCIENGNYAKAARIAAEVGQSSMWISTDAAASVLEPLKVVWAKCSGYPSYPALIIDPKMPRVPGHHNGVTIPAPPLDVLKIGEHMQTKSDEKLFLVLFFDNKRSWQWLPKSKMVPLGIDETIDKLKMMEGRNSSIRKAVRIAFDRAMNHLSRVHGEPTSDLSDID
T1 sequence (P55201 whole entry): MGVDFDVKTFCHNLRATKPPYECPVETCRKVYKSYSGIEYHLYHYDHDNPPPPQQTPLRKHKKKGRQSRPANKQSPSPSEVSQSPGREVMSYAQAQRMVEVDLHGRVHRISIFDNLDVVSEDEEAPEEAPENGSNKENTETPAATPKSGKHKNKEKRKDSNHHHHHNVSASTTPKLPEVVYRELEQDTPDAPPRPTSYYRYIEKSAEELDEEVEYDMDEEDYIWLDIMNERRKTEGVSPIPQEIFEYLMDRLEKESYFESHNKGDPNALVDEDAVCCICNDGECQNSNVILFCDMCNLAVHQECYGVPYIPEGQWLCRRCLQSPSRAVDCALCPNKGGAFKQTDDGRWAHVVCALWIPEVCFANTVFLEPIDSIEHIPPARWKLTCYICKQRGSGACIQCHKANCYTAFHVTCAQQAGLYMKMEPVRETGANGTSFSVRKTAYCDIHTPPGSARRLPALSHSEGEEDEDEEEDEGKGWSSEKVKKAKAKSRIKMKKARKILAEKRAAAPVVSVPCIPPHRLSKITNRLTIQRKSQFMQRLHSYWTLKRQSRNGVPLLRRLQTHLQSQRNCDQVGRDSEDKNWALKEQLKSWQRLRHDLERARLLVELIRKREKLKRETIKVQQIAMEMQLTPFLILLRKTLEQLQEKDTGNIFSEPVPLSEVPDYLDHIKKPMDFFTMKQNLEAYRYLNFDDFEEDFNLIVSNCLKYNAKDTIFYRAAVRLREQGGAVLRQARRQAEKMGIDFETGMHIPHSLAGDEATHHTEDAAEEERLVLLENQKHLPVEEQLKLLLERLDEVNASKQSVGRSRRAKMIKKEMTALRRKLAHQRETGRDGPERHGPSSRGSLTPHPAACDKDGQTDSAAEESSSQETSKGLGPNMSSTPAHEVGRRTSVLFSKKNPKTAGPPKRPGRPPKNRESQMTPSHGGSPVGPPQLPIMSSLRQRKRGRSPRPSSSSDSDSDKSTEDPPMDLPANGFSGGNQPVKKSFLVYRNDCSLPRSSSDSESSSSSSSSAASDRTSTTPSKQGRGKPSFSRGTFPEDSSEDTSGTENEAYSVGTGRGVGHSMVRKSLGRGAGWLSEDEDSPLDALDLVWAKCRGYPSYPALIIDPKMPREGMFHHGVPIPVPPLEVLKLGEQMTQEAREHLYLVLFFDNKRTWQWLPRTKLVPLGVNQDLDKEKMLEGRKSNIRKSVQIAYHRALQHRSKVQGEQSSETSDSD
T6 sequence (Q9H8M2 whole entry): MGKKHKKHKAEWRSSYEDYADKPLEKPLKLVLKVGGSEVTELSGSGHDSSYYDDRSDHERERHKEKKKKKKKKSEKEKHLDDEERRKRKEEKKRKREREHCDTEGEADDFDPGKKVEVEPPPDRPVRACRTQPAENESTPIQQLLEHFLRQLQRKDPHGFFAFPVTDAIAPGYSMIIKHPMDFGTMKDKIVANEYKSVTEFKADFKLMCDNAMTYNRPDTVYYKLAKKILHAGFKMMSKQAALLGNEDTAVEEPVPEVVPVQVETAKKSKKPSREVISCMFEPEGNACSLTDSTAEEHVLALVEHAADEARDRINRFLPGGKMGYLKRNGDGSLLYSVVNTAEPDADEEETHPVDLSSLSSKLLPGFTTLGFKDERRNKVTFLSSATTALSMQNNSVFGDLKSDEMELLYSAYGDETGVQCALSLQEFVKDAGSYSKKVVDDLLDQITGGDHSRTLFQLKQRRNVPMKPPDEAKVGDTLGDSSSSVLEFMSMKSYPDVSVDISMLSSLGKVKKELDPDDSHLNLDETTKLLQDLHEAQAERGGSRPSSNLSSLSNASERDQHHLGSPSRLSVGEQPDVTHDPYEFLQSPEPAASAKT
T10 sequence (Q9NPI1 whole entry): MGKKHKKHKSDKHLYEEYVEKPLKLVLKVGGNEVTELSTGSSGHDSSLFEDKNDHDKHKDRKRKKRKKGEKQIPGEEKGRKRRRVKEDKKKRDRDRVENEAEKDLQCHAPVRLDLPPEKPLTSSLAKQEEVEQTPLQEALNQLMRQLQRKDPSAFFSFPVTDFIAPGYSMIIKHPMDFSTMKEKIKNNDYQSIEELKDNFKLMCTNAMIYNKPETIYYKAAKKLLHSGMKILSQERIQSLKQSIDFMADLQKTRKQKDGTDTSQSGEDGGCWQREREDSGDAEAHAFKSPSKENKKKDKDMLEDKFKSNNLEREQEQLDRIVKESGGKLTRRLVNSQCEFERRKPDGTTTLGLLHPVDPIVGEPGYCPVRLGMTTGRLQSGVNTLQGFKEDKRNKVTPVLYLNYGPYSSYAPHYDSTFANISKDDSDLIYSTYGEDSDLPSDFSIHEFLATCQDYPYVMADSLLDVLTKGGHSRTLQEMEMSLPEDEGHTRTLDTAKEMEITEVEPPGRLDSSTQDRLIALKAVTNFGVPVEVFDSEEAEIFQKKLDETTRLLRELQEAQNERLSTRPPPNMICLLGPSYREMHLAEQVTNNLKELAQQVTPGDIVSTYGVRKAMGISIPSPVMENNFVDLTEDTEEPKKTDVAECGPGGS
T8 sequence (P51531 whole entry): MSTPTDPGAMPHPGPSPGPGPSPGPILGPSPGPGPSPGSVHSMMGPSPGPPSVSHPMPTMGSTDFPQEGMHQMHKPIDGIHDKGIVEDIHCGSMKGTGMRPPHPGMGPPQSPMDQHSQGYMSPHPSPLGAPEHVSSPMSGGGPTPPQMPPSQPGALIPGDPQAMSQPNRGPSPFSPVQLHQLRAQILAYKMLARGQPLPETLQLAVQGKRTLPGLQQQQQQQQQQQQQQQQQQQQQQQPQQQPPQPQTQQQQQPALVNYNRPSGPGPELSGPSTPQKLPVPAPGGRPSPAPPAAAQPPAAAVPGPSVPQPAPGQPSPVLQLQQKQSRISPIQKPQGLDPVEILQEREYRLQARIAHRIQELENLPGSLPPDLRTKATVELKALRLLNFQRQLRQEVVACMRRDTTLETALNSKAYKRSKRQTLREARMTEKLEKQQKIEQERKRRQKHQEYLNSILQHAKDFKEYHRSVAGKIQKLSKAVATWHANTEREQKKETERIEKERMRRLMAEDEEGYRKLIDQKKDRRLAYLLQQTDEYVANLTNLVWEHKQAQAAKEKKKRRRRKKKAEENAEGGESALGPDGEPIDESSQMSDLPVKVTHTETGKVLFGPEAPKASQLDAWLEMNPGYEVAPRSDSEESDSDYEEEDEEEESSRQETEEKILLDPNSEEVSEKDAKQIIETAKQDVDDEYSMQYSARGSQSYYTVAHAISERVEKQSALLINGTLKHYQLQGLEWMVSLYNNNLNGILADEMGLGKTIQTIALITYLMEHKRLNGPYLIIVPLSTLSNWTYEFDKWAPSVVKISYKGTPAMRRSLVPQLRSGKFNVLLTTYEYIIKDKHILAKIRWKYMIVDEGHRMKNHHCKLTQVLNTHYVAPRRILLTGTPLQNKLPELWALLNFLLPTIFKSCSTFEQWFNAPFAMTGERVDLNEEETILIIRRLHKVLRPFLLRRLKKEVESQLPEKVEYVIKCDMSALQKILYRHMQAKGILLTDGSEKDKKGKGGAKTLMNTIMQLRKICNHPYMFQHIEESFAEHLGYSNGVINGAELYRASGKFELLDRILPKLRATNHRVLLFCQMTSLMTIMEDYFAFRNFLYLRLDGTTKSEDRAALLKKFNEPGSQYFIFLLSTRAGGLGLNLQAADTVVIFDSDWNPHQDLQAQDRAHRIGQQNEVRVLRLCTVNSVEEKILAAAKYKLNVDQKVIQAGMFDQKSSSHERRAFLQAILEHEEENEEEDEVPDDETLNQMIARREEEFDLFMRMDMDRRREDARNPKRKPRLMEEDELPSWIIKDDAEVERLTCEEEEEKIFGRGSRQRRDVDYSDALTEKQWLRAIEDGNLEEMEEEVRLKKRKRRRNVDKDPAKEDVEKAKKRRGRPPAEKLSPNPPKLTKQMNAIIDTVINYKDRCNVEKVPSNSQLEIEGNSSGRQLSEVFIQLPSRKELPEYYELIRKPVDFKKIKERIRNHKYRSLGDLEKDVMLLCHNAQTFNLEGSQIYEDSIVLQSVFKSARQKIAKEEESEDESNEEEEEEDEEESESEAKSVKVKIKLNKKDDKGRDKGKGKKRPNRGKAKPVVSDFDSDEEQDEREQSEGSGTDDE

Take `CO[C@H]1CC[C@H](n2c([C@@H]3CCCC(=O)N3c3ccc(F)c(F)c3)nc3cc(-c4c(C)noc4C)ccc32)CC1` [CCS1477]: the remaining binding at 1 µM on BRPF1 turned out to be 31%; on BRPF3, 75%; at ATAD2B, 79%; on BRD1, 88%; at ATAD2A, 100%; at BRD9, 39%. The remaining binding at 1 µM at BRDT(2) came out at 76%; at SMARCA2, 50%; at TAF1(2), 69%; on BRD7, 64%; at BRD3(2) it was 66%. Moreover, the “Percent Control TRIM33(PHD,Bromo.)” value in the data set with TRIM33(PHD,Bromo.) came out at 90. Besides, in [1], the plasma concentration is < 1 ng/mL. For the same molecule, the Kd on BRD4-BD1 (BRD4-1) amounted to 403 ± 137 nM.

Broadly, the Kd is the free concentration of one partner at which half of the binding sites on the other are occupied at equilibrium, for simple one-to-one binding. A high value points to lower affinity.

The record behind these values is article PMC11045757, “Group 3 medulloblastoma transcriptional networks collapse under domain specific EP300/CBP inhibition” (Nature Communications, 2024).
